Data reported in the NIST ThermoML archive (doi:10.1021/acs.jced.7b00665).
Numbers after ± are expanded uncertainties.

Columns and labels:
[1] = Molar enthalpy of transition or fusion; conditions: Crystal; DSC
[2] = Crystal; DTA

Molar enthalpy of transition or fusion [1]: 3.28 ± 0.287 kcal/mol
Normal melting temperature [2]: 32.47 ± 0.61 °C
SMILES: OC/C=C/c1ccccc1 [trans-cinnamyl alcohol]
